This note sets out measurements from patent US11208412B2 (DAEGU-GYEONGBUK MEDICAL INNOVATION FOUNDATION, priority 2017, dated 2021).

Common to all, as to assay: Kinase selectivity, DiscoverX scanMAX Kinase assay panel (% control)
What all share (type): binding

Assay [1] addresses T1, kinases of the scanMAX Kinase assay panel (Homo sapiens, UniProt P08581).
T1 construct: purchased DiscoverX Co. (contract measurement) scanMAX Kinase assay panel
To be noted: MET; 1 uM. Put shortly:
(§1)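 Binding-panel profiling at one concentration, 1 uM in DMSO; values are % of DMSO control after subtracting the positive-control floor. Less than 35% means activity on that kinase.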

Assay [2] addresses T2, kinases of the scanMAX Kinase assay panel (Homo sapiens, UniProt P42336, Q546K).
T2 construct: purchased DiscoverX Co. (contract measurement) scanMAX Kinase assay panel
Conditions: PIK3CA(Q546K); 1 uM. The method, boiled down: as §1

Assay [3] concerns the target T3, kinases of the scanMAX Kinase assay panel (Homo sapiens, UniProt Q06418).
T3 construct: purchased DiscoverX Co. (contract measurement) scanMAX Kinase assay panel
T3 sequence (Q06418 41-890): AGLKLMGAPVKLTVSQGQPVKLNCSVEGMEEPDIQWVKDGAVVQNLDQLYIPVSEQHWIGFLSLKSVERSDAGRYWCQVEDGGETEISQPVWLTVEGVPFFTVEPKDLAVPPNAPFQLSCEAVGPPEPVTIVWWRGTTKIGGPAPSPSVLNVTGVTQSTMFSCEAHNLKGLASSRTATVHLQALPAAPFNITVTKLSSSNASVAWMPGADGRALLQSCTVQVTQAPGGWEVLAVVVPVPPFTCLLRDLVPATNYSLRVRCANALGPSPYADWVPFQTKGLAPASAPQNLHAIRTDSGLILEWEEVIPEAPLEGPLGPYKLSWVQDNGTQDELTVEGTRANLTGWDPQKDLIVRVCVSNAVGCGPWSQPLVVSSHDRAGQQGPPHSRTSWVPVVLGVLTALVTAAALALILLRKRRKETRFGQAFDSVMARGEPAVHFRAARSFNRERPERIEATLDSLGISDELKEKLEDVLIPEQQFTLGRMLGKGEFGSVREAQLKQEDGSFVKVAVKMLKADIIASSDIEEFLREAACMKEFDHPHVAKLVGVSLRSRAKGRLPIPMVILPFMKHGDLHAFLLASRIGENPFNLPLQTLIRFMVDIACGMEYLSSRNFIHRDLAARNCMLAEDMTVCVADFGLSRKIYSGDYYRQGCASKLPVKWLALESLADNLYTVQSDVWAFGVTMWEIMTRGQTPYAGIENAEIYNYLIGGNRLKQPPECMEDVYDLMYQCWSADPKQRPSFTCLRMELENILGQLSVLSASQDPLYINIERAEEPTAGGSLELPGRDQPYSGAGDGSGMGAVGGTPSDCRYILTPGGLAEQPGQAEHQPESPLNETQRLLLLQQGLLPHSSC
Conditions: kinase TYRO3; 1 uM in DMSO. The method, boiled down: as §1

In assay [4] the target is T4, kinases of the scanMAX Kinase assay panel (Homo sapiens, UniProt Q6PHR2).
T4 construct: purchased DiscoverX Co. (contract measurement) scanMAX Kinase assay panel
T4 sequence (Q6PHR2 1-472): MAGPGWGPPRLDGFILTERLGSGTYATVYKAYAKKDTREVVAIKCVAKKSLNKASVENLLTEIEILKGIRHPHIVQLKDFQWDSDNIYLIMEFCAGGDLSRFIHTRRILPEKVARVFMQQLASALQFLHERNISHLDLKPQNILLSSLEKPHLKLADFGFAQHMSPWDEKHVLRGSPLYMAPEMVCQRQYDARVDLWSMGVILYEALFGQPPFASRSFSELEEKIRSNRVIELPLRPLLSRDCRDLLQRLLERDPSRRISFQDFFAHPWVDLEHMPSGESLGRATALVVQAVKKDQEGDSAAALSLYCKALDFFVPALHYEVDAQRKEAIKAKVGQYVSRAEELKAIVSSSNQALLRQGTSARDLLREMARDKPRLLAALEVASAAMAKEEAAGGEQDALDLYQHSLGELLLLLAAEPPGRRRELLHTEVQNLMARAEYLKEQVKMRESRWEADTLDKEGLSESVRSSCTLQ
To be noted: kinase ULK3; 1 uM in DMSO. Put shortly: as §1

Each structure is given as a SMILES string.

T1 sequence (P08581 25-1390): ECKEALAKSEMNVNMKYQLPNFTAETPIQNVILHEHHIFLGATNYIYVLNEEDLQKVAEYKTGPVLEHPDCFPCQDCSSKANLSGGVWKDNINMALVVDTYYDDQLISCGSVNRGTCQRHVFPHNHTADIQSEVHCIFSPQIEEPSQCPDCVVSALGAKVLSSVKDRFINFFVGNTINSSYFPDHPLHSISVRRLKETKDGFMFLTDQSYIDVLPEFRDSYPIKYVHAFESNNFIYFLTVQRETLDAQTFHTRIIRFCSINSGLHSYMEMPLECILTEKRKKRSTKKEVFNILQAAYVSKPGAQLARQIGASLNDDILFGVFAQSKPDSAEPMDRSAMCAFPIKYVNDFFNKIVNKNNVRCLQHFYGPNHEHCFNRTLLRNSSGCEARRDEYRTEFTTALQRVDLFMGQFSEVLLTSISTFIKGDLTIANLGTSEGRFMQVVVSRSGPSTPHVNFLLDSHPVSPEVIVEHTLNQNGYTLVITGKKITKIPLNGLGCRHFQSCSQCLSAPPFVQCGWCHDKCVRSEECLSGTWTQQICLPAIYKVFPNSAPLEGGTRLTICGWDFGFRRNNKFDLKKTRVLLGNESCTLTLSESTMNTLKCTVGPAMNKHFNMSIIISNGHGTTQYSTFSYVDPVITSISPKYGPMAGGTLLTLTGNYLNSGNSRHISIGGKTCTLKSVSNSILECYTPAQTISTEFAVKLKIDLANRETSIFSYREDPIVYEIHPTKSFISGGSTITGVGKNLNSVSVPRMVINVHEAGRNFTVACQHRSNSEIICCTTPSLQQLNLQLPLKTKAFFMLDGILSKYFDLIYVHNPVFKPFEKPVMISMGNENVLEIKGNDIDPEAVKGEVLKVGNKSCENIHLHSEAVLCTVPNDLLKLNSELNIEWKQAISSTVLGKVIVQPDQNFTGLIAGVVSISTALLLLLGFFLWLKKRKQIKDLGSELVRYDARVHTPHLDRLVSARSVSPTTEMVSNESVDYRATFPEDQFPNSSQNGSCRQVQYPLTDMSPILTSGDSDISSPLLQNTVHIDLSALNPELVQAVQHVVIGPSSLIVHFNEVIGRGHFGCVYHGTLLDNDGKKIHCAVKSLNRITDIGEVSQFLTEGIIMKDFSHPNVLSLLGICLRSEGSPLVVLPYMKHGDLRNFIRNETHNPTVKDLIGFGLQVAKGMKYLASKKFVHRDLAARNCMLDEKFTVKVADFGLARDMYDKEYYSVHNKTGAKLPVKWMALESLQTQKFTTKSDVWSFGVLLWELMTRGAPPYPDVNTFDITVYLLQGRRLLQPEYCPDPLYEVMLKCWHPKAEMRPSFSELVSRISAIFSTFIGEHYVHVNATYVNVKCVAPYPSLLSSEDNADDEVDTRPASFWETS
T2 sequence (P42336 whole entry Q546K): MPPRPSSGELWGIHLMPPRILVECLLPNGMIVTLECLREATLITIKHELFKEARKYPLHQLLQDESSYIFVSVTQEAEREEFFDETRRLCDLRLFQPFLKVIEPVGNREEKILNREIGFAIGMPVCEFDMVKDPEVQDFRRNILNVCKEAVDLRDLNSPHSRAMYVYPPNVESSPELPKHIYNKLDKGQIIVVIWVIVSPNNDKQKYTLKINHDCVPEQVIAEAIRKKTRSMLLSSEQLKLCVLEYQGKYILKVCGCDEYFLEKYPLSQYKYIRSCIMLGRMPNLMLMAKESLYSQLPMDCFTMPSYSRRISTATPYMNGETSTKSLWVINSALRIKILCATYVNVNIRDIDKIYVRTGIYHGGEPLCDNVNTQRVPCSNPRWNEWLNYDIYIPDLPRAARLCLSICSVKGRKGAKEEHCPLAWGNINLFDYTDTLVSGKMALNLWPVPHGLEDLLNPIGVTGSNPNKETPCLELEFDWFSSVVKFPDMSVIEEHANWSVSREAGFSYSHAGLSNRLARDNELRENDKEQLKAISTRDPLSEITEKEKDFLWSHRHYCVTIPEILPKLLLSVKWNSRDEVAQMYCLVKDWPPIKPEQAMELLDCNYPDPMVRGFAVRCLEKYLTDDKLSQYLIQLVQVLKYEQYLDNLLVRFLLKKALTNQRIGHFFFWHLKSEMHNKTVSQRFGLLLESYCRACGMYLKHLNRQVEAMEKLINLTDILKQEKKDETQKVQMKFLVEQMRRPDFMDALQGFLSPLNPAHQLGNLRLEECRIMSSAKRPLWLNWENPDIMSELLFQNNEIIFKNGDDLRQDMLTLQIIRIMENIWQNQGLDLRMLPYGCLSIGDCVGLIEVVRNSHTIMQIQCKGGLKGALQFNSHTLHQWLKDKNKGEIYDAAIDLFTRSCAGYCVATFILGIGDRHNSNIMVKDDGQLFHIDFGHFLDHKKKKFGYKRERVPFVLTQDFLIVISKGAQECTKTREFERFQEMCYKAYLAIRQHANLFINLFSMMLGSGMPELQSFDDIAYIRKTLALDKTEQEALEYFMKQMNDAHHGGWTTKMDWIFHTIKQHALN

For the compound `CNc1nc(Nc2ccc(C(=O)N3CCOCC3)cc2OC)nc2[nH]cc(C#N)c12` [Example 1, 2-((2-methoxy-4-(morpholine-4-carbonyl)phenyl)amino)-4-(methylamino)-7H-pyrrolo[2,3-d]pyrimidine-5-carbonitrile], the remaining binding at 1 µM in assay [1] stood at 89%; in assay [2] it was 75%; in assay [3] it was 100%; in assay [4], 62%.
In the case of `CC1(Nc2nc(Nc3cnn([C@H]4CCN(C5COC5)C[C@@H]4F)c3Cl)nc3[nH]cc(C#N)c23)CC1` [Example 52, 2-((5-chloro-1-((3S,4S)-3-fluoro-1-(oxetane-3-yl)piperidine-4-yl)-1H-pyrazole-4-yl)amino)((1-methylcyclopropyl)amino)-7H-pyrrolo[2,3-d]pyrimidine-5-carbonitrile], the remaining binding at 1 µM was 21% in assay [1], 85% in assay [2], 45% in assay [3] and 0.2% in assay [4].
On the same counts, the results for `CCNc1nc(Nc2ccc(C(=O)N3CCC(N4CCOCC4)CC3)cc2OC)nc2[nH]cc(C(F)(F)F)c12` [Example 104, (4-((4-(ethylamino)-5-(trifluoromethyl)-7H-pyrrolo[2,3-d]pyrimidine-2-yl)amino)-3-methoxyphenyl)(4-morpholinopiperidine-1-yl)methanone] are 100%, 87%, 100% and 100%.
